Measured values reported in article PMC11941218, “Juglone-Bearing Thiopyrano[2,3-d]thiazoles Induce Apoptosis in Colorectal Adenocarcinoma Cells” (Cells, 2025).

Legend:
[1] = tested on: DLD-1 colorectal adenocarcinoma cells; experiment: MTT assay; assay type: cell-based, human; conditions: for IC50: Homo sapiens
Description: DLD-1, HaCaT, and Balb/c 3T3 cells were maintained in DMEM, while HT-29 cells were grown in McCoy’s 5A medium with 10% FBS and 1% penicillin/streptomycin. All cell lines were incubated at 37 °C in a humidified atmosphere with 5% CO2. After detaching the cells with trypsin, they were quantified using a Scepter 3.0 automated cell counter (Millipore, Burlington, MA, USA).
(§1) The metabolic activity of cells exposed to the tested derivatives, doxorubicin, and DMSO, was assessed using an MTT assay according to the manufacturer’s protocol (Sigma-Aldrich, St. Louis, MO, USA). Adherent cells were seeded into 96-well plates (5000–10,000 cells in 100 µL of growth medium per well) and allowed to adhere overnight before treatment. For lymphocytes, activation with phytohemagglutinin-L (1 µg/mL) was performed for 24 h, after which they were seeded in 96-well plates at a density of 100,000 cells/well in RPMI-1640 medium supplemented with 20% FBS. The test substances, including Les-6547, Les-6557, and doxorubicin, were added to 100 µL of culture medium to achieve final concentrations of 0 µM, 0.1 µM, 1 µM, 2.5 µM, 10 µM, and 100 µM for all compounds, and the cells were further incubated for 24, 48, or 72 h. DMSO-treated cells served as the control. Then, 20 µL of MTT solution (5 mg/mL) was added and incubated for 2–4 h to allow formazan crystal formation. The formazan crystals were then solubilized by adding DMSO. The absorbance of formazan was measured at 570 nm using a ThermoScientific Evolution 201 UV-VIS spectrophotometer (ThermoFisher Scientific, Waltham, MA, USA). The control condition with 0.5% DMSO was considered 100% viability. The IC50 values for the compounds were determined using GraphPad Prism 8 and 9 software (GraphPad Software, Boston, MA, USA).

[2] = tested on: Human blood lymphocytes; experiment: MTT assay; assay type: cell-based; conditions: for IC50: Lymphocyte, human blood lymphocytes, 72 h, M ± SD, n = 3; for decrease of viability compared to control cells: lymphocytes from a healthy donor, 100 µM
Description: Lymphocytes from human peripheral blood were isolated with sodium heparin (10 U/mL) as an anticoagulant. Isolation was performed through a density gradient method with the Gradisol G, following a modified procedure. Peripheral blood was mixed with Gradisol G in equal proportions (1:1) and centrifuged at 400× g for 30 min at room temperature. The cells were collected, washed in phosphate-buffered saline (PBS), and treated with a hypotonic solution to remove residual erythrocytes. Lymphocytes were activated by phytohemagglutinin-L (1 µg/mL) and cultured in RPMI-1640 medium supplemented with 20% fetal bovine serum under controlled conditions of 95% air and 5% CO2 [27].
as §1

[3] = tested on: DLD-1 colorectal adenocarcinoma cells; experiment: Colony forming (clonogenic) assay; assay type: cell-based, human; conditions: for inhibition of colony formation: DLD-1, 2.5 µM; for inhibition at 1 µM / IC50: Homo sapiens; for inhibition at 1 µM: DLD-1, 1 µM, read-out: inhibition of colony formation; for IC50: DLD-1, 72 h treatment, 14 days of incubation, M ± SD, n = 3
Description: (§2) For colony forming assay, HT-29 and DLD-1 cells were seeded in 12-well plates at a density of 500 cells in 2 mL of growth medium per well. After overnight incubation, the cells were exposed to the compounds Les-6547, Les-6557, and doxorubicin at concentrations ranging from 0.1 to 100 µM for 72 h. Following treatment, the medium was replaced with fresh medium without the compounds. After 14 days of culture, cells were rinsed with PBS and fixed with cold methanol for 10 min. Subsequently, the cells were stained with a 0.1% crystal violet solution for 10 min. After washing, the plates were allowed to dry at room temperature. Numbers of colonies were quantified using ImageJ software (version 1.5.4; National Institutes of Health, Bethesda, MD, USA). The effect of the compounds on the colony-forming capacity was calculated as a percentage of colonies relative to the untreated control group.

[4] = tested on: HT-29 colorectal adenocarcinoma cells; experiment: Colony forming (clonogenic) assay; assay type: cell-based, human; conditions: for inhibition of colony formation: HT-29, 2.5 µM; for inhibition at 1 µM / IC50: Homo sapiens; for inhibition at 1 µM: HT-29, 1 µM, read-out: inhibition of colony formation; for IC50: HT-29, 72 h treatment, 14 days of incubation, n = 3
Description: as §2

[5] = tested on: DLD-1 colorectal adenocarcinoma cells; experiment: [^3H]-thymidine incorporation assay (DNA biosynthesis); assay type: cell-based; conditions: Homo sapiens; DLD-1, 24 h, M ± SD, n = 3
Description: (§3) The anti-proliferative potential of Les-6547 and Les-6557 was analyzed using a clonogenic assay and incorporation of radioactive [^3H]-thymidine into the DNA of colorectal adenocarcinoma HT-29 and DLD-1 cell lines after 24 h of incubation with various concentrations of the tested agents.
(§4) Next, we examined the effects of the tested compounds on the proliferative activity of human colorectal adenocarcinoma cells by assessing their ability to influence DNA biosynthesis using the thymidine incorporation assay (Figure 6, Table 8). Les-6547 decreased DNA biosynthesis in DLD-1 cells to 50% at a concentration of 2.19 ± 0.39 µM.

[6] = tested on: HT-29 colorectal adenocarcinoma cells; experiment: as above; assay type: cell-based; conditions: Homo sapiens; HT-29, 24 h, M ± SD, n = 3
Description: as §3, §4

[7] = tested on: HT-29 colorectal adenocarcinoma cells; experiment: Mitochondrial membrane potential assay (JC-1, flow cytometry); assay type: cell-based, human; conditions: HT-29, JC-1, 24 h; Les-6547 5 μM, Les-6557 10 μM
Description: The disruption of mitochondrial membrane potential (MMP) was assessed using the JC-1 MitoScreen kit and a BD FACSCanto II flow cytometer, following the instructions provided and previously described protocols.
HT-29 cells were exposed to Les-6547 (5 µM) and Les-6557 (10 µM) for 24 h. After the treatment, the cells were washed and resuspended in 0.5 mL of buffer containing 10 μg/mL JC-1, followed by incubation for 15 min at room temperature, shielded from light.
Then, the cells were washed twice with buffer, resuspended in 300 μL of PBS, and analyzed for mitochondrial membrane potential disruption.

[8] = tested on: HT-29 colorectal adenocarcinoma cells; experiment: Intracellular total ROS activity assay (flow cytometry); assay type: cell-based, human; conditions: HT-29, 24 h; control 3.8%
Description: Total reactive oxygen species (ROS) activity was assessed using an Intracellular Total ROS Activity Assay Kit. Following 24 h incubation with studied derivatives, HT-29 cells were prepared for analysis with the flow cytometer according to the protocol detailed in the literature. The cells were washed twice with cold PBS, followed by the addition of the assay buffer provided in the kit. The cells, at a concentration of 1 × 10⁶ cells/mL, were then exposed to 10 µL of Total ROS Green reagent and incubated for one hour at 37 °C in a CO2 incubator. After the incubation period, the cells were rinsed with the assay buffer. Finally, the cells were resuspended in 500 µL of assay buffer and analyzed using a BD FACSCanto II flow cytometer in conjunction with FACSDiva 6.1.3 software (both BD Biosciences Systems, San Jose, CA, USA). The BD Cytometer Setup and Tracking Beads (BD Biosciences, San Diego, CA, USA) were used for calibration.

[9] = DLD-1, MTT, 24, 48 and 72 h, read-out: IC50 (range over incubation times)
[10] = DLD-1, MTT, 24 h, M ± SD, n = 3, read-out: IC50
[11] = DLD-1, MTT, 48 h, M ± SD, n = 3, read-out: IC50
[12] = DLD-1, MTT, 72 h, M ± SD, n = 3, read-out: IC50

IC50 [1, 9] | IC50 [1, 10] | IC50 [1, 11] | IC50 [1, 12] | IC50 [3] | IC50 [4] | IC50 [5] | IC50 [6] | Structure (SMILES) | inhibition of viability, times more effective than Les-6547 ([1]; DLD-1, MTT, 48 h, versus Les-6547) | IC50 [2] | decrease of viability compared to control cells [2] | inhibition of colony formation [3] | inhibition at 1 µM [3] | inhibition of colony formation [4] | inhibition at 1 µM [4] | Cells with decreased ΔΨm [7] | Cells with normal ΔΨm [7] | increase of the number of ROS-positive cells compared with the control cells [8]
1.94 to 16.9 µM | 16.9 ± 3.32 µM | 1.94 ± 0.05 µM | 5.19 ± 1.14 µM | 0.33 ± 0.05 µM | ~0.5 µM | 4.65 ± 0.02 µM | 2.91 ± 0.38 µM | O=C1C2=C(C(=O)c3c(O)cccc31)C(c1ccc(Cl)cc1)c1sc(=O)[nH]c1S2 (centres unmarked) [Les-6557] | 2.5 times | > 100 µM | 25% | completely inhibited colony formation | 99% | completely inhibited colony formation | 100% | 32.9% | 68.5% | approximately 10 fold
5.14 to 6.62 µM | 5.14 ± 0.81 µM | 5.17 ± 0.58 µM | 6.62 ± 0.07 µM | 0.4 ± 0.06 µM | ~0.5 µM | 2.19 ± 0.39 µM | 2.21 ± 0.39 µM | O=C1C2=C(C(=O)c3c(O)cccc31)C(c1cc(Cl)ccc1O)c1sc(=O)[nH]c1S2 (centres unmarked) [Les-6547] | – | > 100 µM | 25% | completely inhibited colony formation | 99% | completely inhibited colony formation | 100% | 30.8% | 70.4% | approximately 10 fold
